From patent US8476317B2, “N-alkylcarbonyl-amino acid ester compounds and their use for cough and pharyngitis” (priority 2011, dated 2013)

Columns and labels:
philtrum skin [1] = assay: Cooling on facial (philtrum) skin, ointment; format: in vivo, human; details: for Philtrum Skin (min), duration of cooling: 5 mg/ml in Aquaphor ointment
Source text: A reliable place for topical application is the skin above the upper lip (above the vermilion border of the lips), on the philtrum, lateral to the philtrum until the nasolabial folds, and on the lower nostrils (subnasale). This part of the face is known to be densely innervated with cold receptors, second only to the surfaces of the eyeball and anogenitalia. At this locus, tingling, cool and cold sensations in the skin may be experienced and rated for time of onset and intensity.
The intervals for recording sensations are 5 to 10 minutes, until two successive zeroes are obtained. The results (shown in FIG. 1) are averaged values of 4 to 6 separate trials in the same individual. The data are plotted using SigmaPlot® (Systat Software, Point Richmond Calif.) and a smoothing function with a negative exponential was used for analysis and statistical fit of the results. Confirmatory trials of cooling action of the long-acting NACE compounds were obtained in 2 to 4 individuals but not quantified for some because of the large number of chemicals that were evaluated.
(§1) The onset of drug action is taken as the time to reach 2 units of coolness intensity, and offset of drug action is the time when coolness intensity drops below 2, after previously surpassing 2 units. The duration of cooling action is defined as the offset time minus the onset time. […] The quality of the sensation is noted, for example, as pure refreshing coolness, or if the sensation is accompanied by irritation (stinging or burning). The quality of the sensation is not rated for intensity.
For bioassay on the skin, approximately 30 mg was stirred and dissolved in 3 g of warm liquid Aquaphor® ointment to a yield a 40 mM (˜1% wt/vol) ointment. The exact amount was adjusted so that the molar equivalent was about 35 to 40 mM. After cooling, 40 to 70 mg of the solid ointment was placed on the tip of a plastic stick and applied to the skin above the upper lip, on the philtrum, and lateral to the philtrum, up to the nasolabial folds, of test subjects and the onset and duration of cooling sensations noted.
The intervals for recording sensations were 5 to 10 minutes, until two successive zeroes were obtained. The results (shown in FIG. 1) are averaged values of 4 to 6 separate trials in the same individual. The data are plotted using SigmaPlot® (Systat Software, Point Richmond, Calif., USA) and a smoothing function with a negative exponential was used for analysis and statistical fit of the results.
as §1, with “was” for “is”, “was also noted: such” for “is noted, for example,”
In the results of FIG. 1, the test compounds were singly applied to the skin above the upper lips as a ˜1% wt/vol (10 mg/ml) ointment. Subsequently, for the results shown in Table 3, the test dose on the philtrum was reduced to a 0.5% wt/vol (5 mg/ml) ointment. The reason for choosing a lower dose was to increase the number of trials per individual and to have a reduced chance of substances accumulating in the skin.

ocular surface = assay: Eye wipe test, duration of cooling on ocular surface; format: in vivo, human; details: eye wipes 1 mg/ml in 5%-95% v/v ethanol-distilled water
Protocol: To further document the activities fo the test molecules, the results from an eye wipe test was included. Here the test substance is applied to the closed eyelids with a towelette at a concentration of 1 mg/ml in 5%-ethanol-95%-distilled water vol/vol and the duration of cooling on the ocular surface was recorded. […] It is likely that the mucous membranes that line the ocular surface and the pharynx have similar sensory mechanisms that are somewhat different from the philtrum skin which is keratinized.

pharyngeal surface = assay: Chili-pepper sauce cough challenge test; format: in vivo, human; parameters: key: If there is no attenuation of the challenge stimuli, the score is 0; if there is partial inhibition, the score is +; if there is complete attenuation of the cough signal, the score is ++; details: challenge 45 to 50 min after ODT containing 2 mg of test substance
Source text: A number of cough challenge methods have been devised for evoking the cough reflex (Morice et al. Briti. J. Clin. Pharmacol. 52: 365-375, 2001). Usually, citric acid or capsaicin is delivered via the inhalation route to volunteers and the number of coughs counted. […] The chili pepper sauce used here is called Yank Sing® Chili Pepper Sauce (YS Gourmet Productions, Inc., PO Box 26189, San Francisco, Calif. 94126) and is a well-known condiment for use with dim sum (Chinese tea lunch). The sensations associated with the chili pepper sauce are located in the back of the mouth and are clearly recognized and associated with a desire to clear the throat. […] To test for anti-cough activity the ODT with the test substance is first administered onto the dorsal surface of the tongue and 45 to 50 min afterwards the chili-pepper sauce test is administered. If there is no attenuation of the challenge stimuli, the score is 0, if there is partial inhibition, the score is +, and if there is complete attenuation of the cough signal, the score is ++. In the presence of an ODT that results in a ++ score, the irritative signals are completely absent, yet the salty taste used in the soy sauce of the condiment can still be easily tasted. The test substances in the ODT that produced a ++ score were then identified and further tested for effectiveness in the treatment of cough.

cough = format: in vivo, human
Protocol: In 20 trials, 10 trials per subject, two mg of 95%+ pure powder of a D-Ala ethyl compound (No. 2 in Table 1, (R)-2-[((1R,2S,5R)-2-isopropyl-5-methyl-cyclohexanecarbonyl)-amino]-propionic acid ethyl ester)) of Formula (1) was placed on the mid-portion of the tongue of these two subjects. Both subjects reported relief from the desire to cough within 1 minute after application. Sensations of robust coolness in the back of the throat was noted and lasted for about 30 minutes. Applications of similar amounts of powdered sugar were not effective. The placebo could be clearly distinguished from the active compound because of the absence of cooling sensations.
A person with a documented 31-year history of asthma attacks volunteered to test one of the compounds falling within Formula (1). They were extremely sensitive to agents such as tobacco smoke, dust, pollen, odors, down/woolen materials, house cleansing products, pets, and sudden change of air temperature, and reacted with violent coughing, mucus secretions, wheezing, choking, and shortness of breath. At the time of this trial, they were taking these medications for their condition: theophylline, Allegra®, Advair®, Intal®, and Singulair®. In 5 trials, during a coughing spree, they placed one to two mg of 95%+ pure powder of a D-Ala ethyl ester (No. 2 in Table 1, ((R)-2-[((1R,2S,5R)-2-isopropyl-5-methyl-cyclohexanecarbonyl)-amino]-propionic acid ethyl ester))) of Formula (1) on the mid-portion of their tongue. They reported a soothing and cool sensation with a slight taste similar to Eucalyptus oil in their mouth and throat. Coughing stopped after 3 to 5 minutes and breathing was normal. […] In three trials when the compound was applied at night, they slept through the night without being awakened by cough. Their spouse remarked that, in over 30 years of marriage, this was the first time that they had seen an effective medication for their cough. They noted that the irritative signals of cough were absent in the presence of the applied chemical, but they still sensed a mechanical build up of secretions in their airways and could voluntarily cough up such secretions if necessary. They continue to use the test compound for management of their asthma, with the knowledge and consent of their physician.
A person had adult-onset asthma for 20 years. Triggers for attacks were tobacco smoke, dust, and changes in air temperature. They used Foradil® (formoterol fumarate) and Asmanex® (mometasone fuorate) twice a day to control their asthma, and monitored their pulmonary function with a portable device for measuring peak expiratory flow. They had daily episodes of both productive and non-productive cough. In 5 trials, when they felt throat irritation and a desire to cough, placement of 1 to 3 mg of (R)-2-[((1R,2S,5R)-2-isopropyl-5-methyl-cyclohexanecarbonyl)-amino]-propionic acid ethyl ester) (No. 2 in Table 1) provided rapid relief and was described as soothing and removed “tightness” in the chest. Peak expiratory flow improved from 320 Umin to 370 Umin. […] The subjective response to the long-acting NACE compound was definitely favourable. The subject remarked that the best time to use the NACE compuound was after inhaling the crystalline Foradil® because this inhaled drug irritated their throat.
ODT containing 2.0 to 2.5 mg of D-Aa Me Ester, D-Ala Et Ester, or D-Ala iPr Ester (identified chemically in Table 1 as No. 1, No. 2, and No. 3, respectively) were prepared using mannitol/maltitol as the excipient and stored in tic-tac boxes each containing 10 tablets. Over a course of two years, 14 adult males with cough tested these tablets. The causes of coughing were colds/flu, allergies, pharyngitis, excessive smoking, and two cases of gastroesophageal reflux. These individuals all had advanced degrees (M.D. or Ph.D.) and were motivated to try the tablets by scientific curiosity or because of financial interests in drug development, or, in several cases, by the annoyance caused by the cough. […]

oral cavity / oropharynx = assay: Cooling in oral cavity after application on dorsal surface of tongue; format: in vivo, human; details: for sensory irritation in oral cavity: 2 to 5 mg on tongue
Protocol: The subject is instructed to close and hold the substance in the mouth for at least 10 seconds and not to swallow. The description of sensations is then recorded at 5 to 10 minute intervals.
The compounds of Formula 1 are white crystalline solids at room temperatures. These compounds were tested as the pure powder (>95% purity, by HPLC analysis), or mixed 1:1 with powdered or granulated sugar. The test substances were applied at 2 to 5 mg on the mid-point of the dorsal surface of the tongue using a metal spatula or a plastic applicator. After depositing the test substance on the tongue, the subject was instructed to keep the mouth closed and allow the fluids of the mouth to inter-mix with the test substance and to distribute it to the back of the mouth (oropharynx). The presence and duration of subjective sensations from the mouth was then recorded.

[2] = system: dorsal surface of the tongue; details: average of 6 subjects, filter paper on tongue; Watson et al.; cited from earlier work
philtrum skin [3] = details: ˜10 mg/ml on the skin; as shown in U.S. 20080227857; cited from earlier work

SMILES	Philtrum Skin (min), duration of cooling (philtrum skin [1]) [min]	Eyelids/Ocular Surface (min), duration of cooling (ocular surface) [min]	Chili-Pepper Sauce Test (pharyngeal surface)	other results
CC(C)OC(=O)[C@@H](C)NC(=O)[C@@H]1C[C@H](C)CC[C@H]1C(C)C [D-Ala-OiPr, (R)-2-[((1R,2S,5R)-2-isopropyl-5-methyl-cyclohexanecarbonyl)-amino]-propionic acid isopropyl ester]	34	360	++	skin or eye irritancy (philtrum skin [1]; in vivo): without skin or eye irritancy; cooling action of ODT on the pharyngeal surface (cough; Study 6, ODT): robust cooling action; effectiveness in reducing cough (cough; Study 6, ODT 2.0 to 2.5 mg, 14 adult males with cough): 100%
CCOC(=O)C(C)NC(=O)[C@@H]1C[C@H](C)CC[C@H]1C(C)C (stereo partly drawn) [L-Ala-OnBu]	0	0	0	–
CCCCOC(=O)C(C)NC(=O)[C@@H]1C[C@H](C)CC[C@H]1C(C)C (stereo partly drawn) [D-Ala-OnBu]	80	40	0	–
CCOC(=O)C(C)NC(=O)[C@@H]1C[C@H](C)CC[C@H]1C(C)C (stereo partly drawn) [L-Ala-OiPr]	27	15	0	–
CC1CCC(C(C)C)C(O)C1 (single isomer, unassigned; (-)) [(−)-menthol, reference compound]	–	–	–	Acts for >1 hour at 40 mM (philtrum skin [1]; 40 mM ointment on skin): no; "perfect" cooling experience (philtrum skin [1]; Table 2 summary): no; Cooling on skin of face (philtrum skin [1]; Table 2 summary): yes; Eye Irritancy (philtrum skin [1]; Table 2 summary): yes; duration of cooling action of ODT (oral cavity / oropharynx; ODT containing 5 to 10 mg): less than 10 minutes; Cooling on tongue (oral cavity / oropharynx; Table 2 summary): yes; Threshold, μg (cooling on tongue) [2]: 0.25 µg
CCCOC(=O)CNC(=O)[C@@H]1C[C@H](C)CC[C@H]1C(C)C [Gly-OnPr]	42	54	0	–
CCCCOC(=O)CNC(=O)[C@@H]1C[C@H](C)CC[C@H]1C(C)C [Gly-OnBu]	38	35	0	–
CCCOC(=O)C(C)NC(=O)[C@@H]1C[C@H](C)CC[C@H]1C(C)C (stereo partly drawn) [D-Ala-OnPr]	108	65	+	–
CCOC(=O)C(C)NC(=O)[C@@H]1C[C@H](C)CC[C@H]1C(C)C (stereo partly drawn) [L-Ala-OnPr]	22	10	0	–
CCNC(=O)C1CC(C)CCC1C(C)C (stereo not drawn) [WS-3]	–	–	–	sensory irritation in oral cavity (oral cavity / oropharynx): some sensory irritation; duration / onset of action on the skin (philtrum skin [3]): short duration of action (less than 1 hour) at ˜10 mg/ml on the skin or slow onset (more than 5 minutes)
COc1ccc(NC(=O)[C@@H]2C[C@H](C)CC[C@H]2C(C)C)cc1 [WS-12]	–	–	–	duration / onset of action on the skin (philtrum skin [3]): short duration of action (less than 1 hour) at ˜10 mg/ml on the skin or slow onset (more than 5 minutes)
CNC(=O)C(C)(C(C)C)C(C)C [WS-23]	–	–	–	sensory irritation in oral cavity (oral cavity / oropharynx): some sensory irritation; duration / onset of action on the skin (philtrum skin [3]): short duration of action (less than 1 hour) at ˜10 mg/ml on the skin or slow onset (more than 5 minutes)
